Assay results as given in US10961189B2, “Spiro-lactam NMDA receptor modulators and uses thereof” (Aptinyx Inc., priority 2016, dated 2021).

System: rats
Assay: positive emotional learning (PEL) test, 50-kHz ultrasonic vocalizations
Type: in vivo, rat
Conditions: PO, one hour after administration
Protocol: Experiments were conducted as described in Burgdorf et al., “The effect of selective breeding for differential rates of 50-kHz ultrasonic vocalizations on emotional behavior in rats,” Devel. Psychobiol., 51:34-46 (2009). Rat 50-kHz ultrasonic vocalization (hedonic USVs) is a validated model for the study of positive affective state and is best elicited by rough-and-tumble play.
The PEL assay measures the acquisition of positive (hedonic) 50-kHz ultrasonic vocalizations (USVs) to a social stimulus, heterospecific rough and tumble play stimulation. Heterospecific rough-and-tumble play stimulation was administered by the experimenter's right hand. One hour after administration of test compound or vehicle negative control (0.5% sodium carboxymethyl cellulose in […] sterile saline), animals received 3 min of heterospecific rough-and-tumble play that consisted of alternating 15 sec blocks of heterospecific play and 15 sec of no-stimulation. High frequency ultrasonic vocalizations (USVs) were recorded and analyzed by sonogram with Avasoft SASlab Pro (Germany) as previously described by Burgdorf et al., “Positive emotional learning is regulated in the medial prefrontal cortex by GluN2B-containing NMDA receptors,” Neuroscience, 192:515-523 (2011). Frequency modulated 50-kHz USVs that occurred during each of the no-stimulation periods were quantified to measure PEL. Animals were not habituated to play stimulation before testing. Positive emotional learning was measured during the conditioned stimulus (CS) trials preceding the tickle unconditioned stimulus (UCS) trials. Animals received 15 second trials consisting of 6 CS and 6 UCS trials each (3 min total).
The table below summarizes the findings. As each experiment includes its own vehicle group, an example (typical) vehicle score is shown. Max effect (mean number of 50 kHz USVs per 15 seconds) is reported as ^: <6.0; *: 6-10.9; **: 11-16.9; ***: 17-22.

SMILES | Max Effect (mean number of 50 kHz USVs per 15 seconds) (dose .001-1 mg/kg) | Max Effect (mean number of 50 kHz USVs per 15 seconds) (dose .1 mg/kg)
CC1CCC2(CC1)CNC2=O (racemic) [Compound AD, 7-methyl-2-azaspiro[3.5]nonan-1-one] | *** (***: 17-22) | –
O=C1NCC12CCC(OCc1ccccc1)CC2 (single isomer, unassigned) [AI, 7-(benzyloxy)-2-azaspiro[3.5]nonan-1-one] | ** (**: 11-16.9) | –
C[C@@H](O)[C@H](NC1CCC2(CC1)CNC2=O)C(N)=O (single isomer, unassigned) [AP] | – | ** (**: 11-16.9)
COc1ccc(CN2CC3(CCC(O)CC3)C2=O)cc1 (centres unmarked) [AG] | ** (**: 11-16.9) | –
O=C1NCC12CCC(O)CC2 (centres unmarked) [AL, 7-hydroxy-2-azaspiro[3.5]nonan-1-one] | ** (**: 11-16.9) | –
